Values quoted from earlier work, collected in patent US8178083B2, “Treatment of optic neuritis” (Ares Trading, S.A., priority 2005, dated 2012).

Tested on: patients with acute isolated unilateral optic neuritis

For C[C@]12C=CC(=O)C=C1CC[C@@H]1[C@@H]2C(=O)C[C@@]2(C)[C@H]1CC[C@]2(O)C(=O)CO [prednisone], the “risk of a new optic neuritis attack in the fellow eye versus placebo-treated group” value (oral prednisone 1 mg/kg per day for 14 days) is given as “more than double” and the “patients who developed new bouts of optic neuritis (in either the affected or fellow eye)” value (within 2 years of follow-up) is given as 30%.
